{"source": "patent US20110200655A1", "about": "“Systems and methods that kill infectious agents (bacteria) without the use of a systemic anti-biotic” (priority 2010, published 2011)", "key": {"MMPs": {"target": "MMPs", "conditions": "compared with Ilomastat; cited from earlier work"}, "Staph. aureus": {"test_system": "Staph. aureus", "experiment": "Zone of inhibition of extract solutions on agar culture plate", "format": "cell-based, Staphylococcus aureus", "procedure": "The extract solutions were tested for antimicrobial activity by placing single 20 microliter drops of the solutions at marked locations on an agar culture plate spread with ~3×10^3 CFU (continuous lawn) of E. coli bacteria. Plates were incubated overnight at 37° C., and the diameter of the “zone of inhibition”, or “ZOI” was measured. The size of this zone corresponds to the antibacterial activity of the extract solutions.\nThe samples were soaked in 25 mL of 5% PG solution for 2 hours, then squeezed to remove excess solution, dried and weighed. Samples were then washed with 25 mL of distilled water for one hour, then dried and weighed. These wash solutions (G-1 and H-1) were saved for analysis. The samples were then subjected to two additional washings with 25 mL distilled water, without drying in between washings (G-2, G-3, and H-2, H-3). Samples were then dried and weighed.\nA repeat of the method of Example 15 was used, except that the extraction solvent used was phosphate buffered saline (“PBS”, pH=7.4, Fisher Scientific), and samples were not dried and weighed between extractions. Samples of a microbicidal utility substrate (Sample I, initial weight=1.024 g) and SofWick (Sample J, initial weight=1.011 g) were each soaked in 20 Ml of ~4% penicillin G solution overnight, and excess solution was removed by squeezing. Samples were then washed with 25 mL distilled water for one hour with agitation, squeezed to remove excess liquid, and then subjected to five sequential extractions using 25 mL of PBS for one hour at room temperature. Samples were squeezed to remove excess solution between extractions. Extracts were tested for antibacterial activity against S. aureus according to the procedure outlined above.\nThe method of Example 15 was used, except that sodium pyrithione (“SP”, Acros Chemical) was used instead of penicillin. One gram samples of the microbicidal utility substrate (sample K), and untreated SofWick (sample L) were each soaked overnight in 25 ml of 0.5% SP solution. Samples were removed and squeezed to remove excess liquid. Samples were then washed in 25 mL of distilled water for one hour with agitation, then squeezed to remove excess liquid. Each sample was subjected to four sequential extractions using 25 mL of distilled water for one hour at room temperature with agitation. Samples were squeezed to remove excess solution between extraction cycles. The extracts were tested for antibacterial activity against S. aureus using the procedure described above."}, "microorganisms": {"test_system": "microorganisms", "conditions": "tobramycin 2.5 mg/l, 15-400 µA/cm^2 during 8 h; cited from earlier work"}, "E. coli bacteria": {"test_system": "E. coli bacteria", "experiment": "Zone of inhibition of extract solutions on agar culture plate", "format": "cell-based, Escherichia coli", "conditions": "20 microliter drop", "procedure": "In this example, a microbicidal utility substrate is made of a nonwoven rayon gauze material graft polymerized with diallyldimethylammonium chloride (DADAMC), and containing approximately 10 weight % poly(DADMAC)), and SofWick, a commercially available rayon gauze material manufactured by Johnson & Johnson were used as substrates. The material was prepared via modification of the SofWick substrate. Each substrate measured approximately 40 square inches. Substrates were dried at 60° C. for 30 minutes and then weighed. Both samples were trimmed to weigh exactly 1.00 grams each. A 0.5 weight % solution of Cefazolin Sodium USP (Geneva Pharmaceuticals) was prepared. Each sample was placed in a 50 mL screw-cap polypropylene centrifuge tube, along with 30 mL of the Cefazolin solution and the tubes were placed on a rotating agitator for 3 hours. The samples were removed from the solutions, then squeezed to remove excess solution, dried at 60° C. for 2 hours, then weighed. The sample weighed 1.05 grams, whereas the SofWick sample weighed 1.00 grams. […] The extraction liquid was saved for analysis.\nThe dried samples were placed in separate 50 mL centrifuge tubes containing 25 mL of distilled water, then placed in the rotating agitator overnight at room temperature. The samples were then removed, squeezed to remove excess solution, dried at 60° C. for 2 hours, then weighed. The sample weighed 1.03 grams, and the SofWick sample weighed 0.98 grams. […] The extraction liquid was saved for analysis This extraction procedure was repeated […] additional times to yield two series of six extraction liquids.\nThe extract solutions were tested for antimicrobial activity by placing single 20 microliter drops of the solutions at marked locations on an agar culture plate spread with ~3×10^3 CFU (continuous lawn) of E. coli bacteria. Plates were incubated overnight at 37° C., and the diameter of the “zone of inhibition”, or “ZOI” was measured. The size of this zone corresponds to the antibacterial activity of the extract solutions. […]"}}}
{"smiles": "CNC(=O)C(Cc1c[nH]c2ccccc12)NC(=O)C(CC(=O)O)CC(C)C", "note": "(centres unmarked) [GM1489]", "values": [{"measurement": "Ki values for MMPs", "setting": "MMPs", "value": "almost as good as Ilomastat"}]}
{"smiles": "CC1(C)S[C@@H]2[C@H](NC(=O)Cc3ccccc3)C(=O)N2[C@H]1C(=O)[O-].[K+]", "note": "[Penicillin G, Penicillin G Potassium]", "values": [{"measurement": "ZOI diameter", "setting": "Staph. aureus; Penicillin G 0.01% control solution", "value": 0, "unit": "mm"}, {"measurement": "ZOI diameter", "setting": "Staph. aureus; Penicillin G 0.1% control solution", "value": 44, "unit": "mm"}, {"measurement": "ZOI diameter", "setting": "Staph. aureus; Penicillin G 1.0% control solution", "value": 56, "unit": "mm"}]}
{"smiles": "NC[C@H]1O[C@H](O[C@H]2[C@H](O)[C@@H](O[C@H]3O[C@H](CO)[C@@H](O)[C@H](N)[C@H]3O)[C@H](N)C[C@@H]2N)[C@H](N)C[C@@H]1O", "note": "[tobramycin]", "values": [{"measurement": "killing of microorganisms with current and antibiotic", "setting": "microorganisms", "value": "total killing of microorganisms"}]}
{"smiles": "Cc1nnc(SCC2=C(C(=O)O)N3C(=O)[C@@H](NC(=O)Cn4cnnn4)[C@H]3SC2)s1", "note": "[Cefazolin, Cefazolin Sodium USP]", "values": [{"measurement": "ZOI diameter", "setting": "E. coli bacteria; Cefazolin 0.01% control solution", "value": 0, "unit": "mm"}, {"measurement": "ZOI diameter", "setting": "E. coli bacteria; Cefazolin 0.1% control solution", "value": 18, "unit": "mm"}, {"measurement": "ZOI diameter", "setting": "E. coli bacteria; Cefazolin 1% control solution", "value": 40, "unit": "mm"}]}
{"smiles": "[Na+].[O-][n+]1ccccc1[S-]", "note": "[SP, sodium pyrithione]", "values": [{"measurement": "ZIO of SP control solution", "setting": "Staph. aureus; 0.01% SP", "value": 12, "unit": "mm"}, {"measurement": "ZIO of SP control solution", "setting": "Staph. aureus; 0.1% SP", "value": 26, "unit": "am"}]}
{"smiles": "CC(C)C[C@H](CC(=O)NO)C(=O)N[C@@H](Cc1c[nH]c2ccccc12)C(=O)O", "note": "[C-terminal carboxylic form of Ilomastat]", "values": [{"measurement": "Ki values for MMPs", "setting": "MMPs", "value": "lower"}]}
